Measured values published in patent publication US20250177408A1, “INHIBITOR OF INTERACTION BETWEEN YAP/TAZ AND TEAD, PREPARATION THEREOF, PHARMACEUTICAL COMPOSITION THEREOF AND USE THEREOF” (ETERN BIOPHARMA (SHANGHAI) CO., LTD., priority 2022, published 2025).

Columns and labels:
MSTO-211H cells = experiment: Cell proliferation inhibition experiment (CellTiter-Glo); type: cell-based; conditions: Homo sapiens, 96 hours, read-out: Inhibitory activity of each compound on the proliferation of MSTO-211H cells (grades of IC50 values)
Procedure: In this example, the intracellular ATP was quantitatively determined by the CellTiter-Glo luminescence cell viability detection kit to detect the number of living cells in the culture.
Step 1: MSTO-211H (ATCC, CRL-2081TM) or NCI-H2052 (ATCC, CRL-5915TM) cells were inoculated in a 96-well plate at a density of 1500 cells per well with a volume of 100 μL per well, and the cells were incubated overnight in a 37° C., 5% carbon dioxide incubator. The culture medium used was RPMI1640 medium (GIBCO-A10491-01)+10% FBS (GIBCO-10099141C)+1% penicillin/streptomycin (Pen/Strep) (GIBCO-15070-063).
Step 2: The cells were treated with the compounds to be tested. The compounds to be tested were 3-fold diluted, and a total of 9 concentration gradients were set up; a certain volume of DMSO or the compounds to be tested was added to each well, respectively, and 2 replicates were set up for each concentration, and the final concentration of DMSO was controlled to be no higher than 0.5%. The cells were incubated for 96 hours in a 37° C., 5% carbon dioxide incubator.
Step 3: Cell viability was detected in the control group and treatment group using CellTiter-Glo Luminescent Cell Viability Assay kit (Promega, G7570). 50 μL of CellTiter-Glo was added to each well, mixed well, and incubated at room temperature for 10 minutes. The signal was read using En Vision® Multilabel Plate Reader (Perkin Elmer).
The inhibition percentage (%) was calculated using the following formula: […]
Using Graphpad Prism software, the IC50 values of the compounds inhibiting the CTG signal of cell proliferation activity was calculated.

[1] = biological target: YAP-TEAD protein interaction (His-TEAD1 (209-426) protein, Bio-YAP peptide (60-100)) (Homo sapiens, UniProt P28347); experiment: YAP-TEAD protein interaction HTRF experiment; type: binding; conditions: His-TEAD1 (209-426) 10 nM, Bio-YAP peptide 50 nM, read-out: Activity of each compound in blocking YAP-TEAD protein interaction (grades of IC50 values)
Chain of YAP-TEAD protein interaction (His-TEAD1 (209-426) protein, Bio-YAP peptide (60-100)) (P28347 209-426): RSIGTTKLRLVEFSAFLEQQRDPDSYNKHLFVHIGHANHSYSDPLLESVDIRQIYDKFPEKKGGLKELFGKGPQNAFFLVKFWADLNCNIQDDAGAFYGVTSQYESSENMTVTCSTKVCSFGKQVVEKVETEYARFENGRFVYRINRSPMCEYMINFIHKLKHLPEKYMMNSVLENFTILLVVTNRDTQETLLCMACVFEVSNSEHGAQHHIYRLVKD
How it was run: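 His-TEAD1 (209-426) at 10 nM final was preincubated 20 min at RT with compounds (10-point 3-fold dilutions, duplicates, 1% DMSO), then Bio-YAP peptide, 10 min. Anti-His-Eu cryptate/streptavidin-XL665 added for 1 h at RT; HTRF read at ex 320 nm, Em665/Em620 ratio ×10000, IC50 from % inhibition.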

Work on `Cn1cnc2c(c1=O)Oc1c(cc(C(N)=O)c(-c3c(Cl)c(F)cc4c3CC(c3ccccc3)(C3CCCN3)O4)c1F)O2` [Compound 126, (S)-7-((S)-5-Chloro-6-fluoro-2-phenyl-2-((S)-pyrrolidin-2-yl)-2,3-dihydrobenzofuran-4-yl)-6-fluoro-3-methyl-4-oxo-3,4,7,8-tetrahydrobenzo[5,6][1,4]dioxo[2,3-d]pyrimidine-8-carboxamide] yielded an IC50 (MSTO-211H cells) of under 200 nM and an IC50 [1] of under 50 nM.
In the case of `[2H]C([2H])([2H])n1ncc2c(c1=O)Oc1c(cc(C(N)=O)c(-c3c(Cl)c(F)cc4c3C[C@](c3ccccc3)([C@@H]3CCCN3)O4)c1F)O2` (atropisomer, axis not shown) [Compound 131, (S)-8-((S)-5-Chloro-6-fluoro-2-phenyl-2-((S)-pyrrolidin-2-yl)-2,3-dihydrobenzofuran-4-yl)-9-fluoro-2-(methyl-d3)-1-oxo-1,2-dihydrobenzo[5,6][1,4]dioxo[2,3-d]pyridazine-7-carboxamide], the IC50 (MSTO-211H cells) is reported as under 200 nM and the IC50 [1] is reported as under 50 nM.
For `CNC(=O)c1cc2c(c(F)c1-c1c(Cl)c(F)cc3c1C[C@](c1ccccc1)([C@@H]1CCCN1)O3)Oc1cnn(C)c(=O)c1O2` (atropisomer, axis not shown) [Compound 125, (S)-8-((S)-5-Chloro-6-fluoro-2-phenyl-2-((S)-pyrrolidin-2-yl)-2,3-dihydrobenzofuran-4-yl)-9-fluoro-N,3-dimethyl-4-oxo-3,4-dihydroxybenzo[5,6][1,4]dioxo[2,3-d]pyridazine-7-carboxamide], the IC50 (MSTO-211H cells) was under 200 nM and the IC50 [1] was under 50 nM.
With `[2H]C1([2H])CC[C@]([2H])([C@@]2(c3ccccc3)Cc3c(cc(F)c(Cl)c3-c3c(C(N)=O)cc4c(c3F)Oc3c(cnn(CCC(F)(F)F)c3=O)O4)O2)N1` (atropisomer, axis not shown) [Compound 155, (S)-8-((S)-5-Chloro-6-fluoro-2-phenyl-2-((S)-pyrrolidin-2-yl-2,5,5-d3)-2,3-dihydrobenzofuran-4-yl)-9-fluoro-1-oxo-2-(3,3,3-trifluoropropyl)-1,2-dihydroxybenzo[5,6][1,4] dioxo[2,3-d]pyridazine-7-carboxamide] the IC50 (MSTO-211H cells) was under 200 nM and the IC50 [1] was under 50 nM.
In the case of `NC(=O)c1cc2c(c(F)c1-c1c(Cl)c(F)cc3c1C[C@](c1ccccc1)([C@@H]1CCCN1)O3)OCC1(CC1)O2` (atropisomer, axis not shown) [Compound 5, (S)-6-((S)-5-Chloro-6-fluoro-2-phenyl-2-((S)-pyrrolidin-2-yl)-2,3-dihydrobenzofuran-4-yl)-5-fluoro-3H-spiro[benzo[b][1,4]dioxoine-2, l'-cyclopropane]-7-carboxamide], the IC50 (MSTO-211H cells) is reported as under 200 nM and the IC50 [1] is reported as under 50 nM.
`NC(=O)c1cc2cn[nH]c2c(F)c1-c1c(Cl)c(F)cc2c1C[C@](c1ccccc1)([C@@H]1CCCN1)O2` (atropisomer, axis not shown) [Compound I-30, (S)-6-((S)-5-Chloro-6-fluoro-2-phenyl-2-((S)-pyrrolidin-2-yl)-2,3-dihydrobenzofuran-4-yl)-7-fluoro-1H-indazole-5-carboxamide] showed an IC50 (MSTO-211H cells) of 200 to 500 nM and an IC50 [1] of under 50 nM.
`NC(=O)c1cc2c(c(F)c1-c1c(Cl)c(F)cc3c1C[C@](c1ccccc1)([C@@H]1CCCN1)O3)Oc1cc(=O)n(C3CC3)nc1O2` (atropisomer, axis not shown) [Compound 129, (S)-8-((S)-5-Chloro-6-fluoro-2-phenyl-2-((S)-pyrrolidin-2-yl)-2,3-dihydrobenzofuran-4-yl)-2-cyclopropyl-9-fluoro-3-oxo-2,3-hydrobenzo[5,6][1,4]dioxo [2,3-c]pyridazine-7-carboxamide] gave an IC50 (MSTO-211H cells) of 200 to 500 nM and an IC50 [1] of under 50 nM.
`NC(=O)c1cc2c(c(F)c1-c1c(Cl)c(F)cc3c1C[C@](c1ccccc1)([C@@H]1CCCN1)O3)Oc1cnn(CCC(F)(F)F)c(=O)c1O2` (atropisomer, axis not shown) [Compound 134, (S)-8-((S)-5-Chloro-6-fluoro-2-phenyl-2-((S)-pyrrolidin-2-yl)-2,3-dihydrobenzofuran-4-yl)-9-fluoro-3-(3,3,3-trifluoropropyl)-4-oxo-3,4-dihydrobenzo[5,6][1,4]dioxo[2,3-d]pyridazine-7-carboxamide] showed an IC50 (MSTO-211H cells) of 500 to 5000 nM and an IC50 [1] of under 50 nM.
`[2H]C1([2H])CC[C@]([2H])([C@@]2(c3ccccc3)Cc3c(cc(F)c(Cl)c3-c3c(C(N)=O)cc4c(c3F)Oc3c(cnn(CC(F)(F)F)c3=O)O4)O2)N1` (atropisomer, axis not shown) [Compound 153, (S)-8-((S)-5-Chloro-6-fluoro-2-phenyl-2-((S)-pyrrolidin-2-yl-2,5,5-d3)-2,3-dihydrobenzofuran-4-yl)-9-fluoro-1-oxo-2-(2,2,2-trifluoroethyl)-1,2-dihydroxybenzo[5,6][1,4] dioxo [2,3-d]pyridazine-7-carboxamide] gave an IC50 (MSTO-211H cells) of under 200 nM and an IC50 [1] of under 50 nM.
With `[2H]C1([2H])CC[C@]([2H])([C@@]2(c3ccccc3)Cc3c(cc(F)c(Cl)c3-c3c(C(N)=O)cc4c(c3F)Oc3c(cnn(C5CC(F)(F)C5)c3=O)O4)O2)N1` (atropisomer, axis not shown) [Compound 154, (S)-8-((S)-5-Chloro-6-fluoro-2-phenyl-2-((S)-pyrrolidin-2-yl-2,5,5-d3)-2,3-dihydrobenzofuran-4-yl)-2-(3,3-difluorocyclobutyl)-9-fluoro-1-oxo-1,2-dihydrobenzo[5,6][1,4]dioxo [2,3-d]pyridazine-7-carboxamide] the IC50 (MSTO-211H cells) was under 200 nM and the IC50 [1] was under 50 nM.
In the case of `Cn1cc2c(n1)COc1c-2cc(C(N)=O)c(-c2c(Cl)c(F)cc3c2C[C@](c2ccccc2)([C@@H]2CCC(=O)N2)O3)c1F` (atropisomer, axis not shown) [Compound 115, (S)-7-((S)-5-Chloro-6-fluoro-2-((S)-5-oxopyrrolidin-2-yl)-2-phenyl-2,3-dihydrobenzofuran-4-yl)-6-fluoro-2-methyl-2,4-dihydrochromeno[3,4-c]pyrazole-8-carboxamide], the IC50 (MSTO-211H cells) is reported as 500 to 5000 nM and the IC50 [1] is reported as under 50 nM.
`CNC(=O)c1cc2c(c(F)c1-c1c(Cl)c(F)cc3c1CC(c1ccccc1)(C1CCCN1)O3)Oc1c(cnn(C)c1=O)O2` [Compound 124, (S)-8-((S)-5-Chloro-6-fluoro-2-phenyl-2-((S)-pyrrolidin-2-yl)-2,3-dihydrobenzofuran-4-yl)-9-fluoro-N,2-dimethyl-1-oxo-1,2-dihydrobenzo[5,6][1,4]dioxo[2,3-d]pyridazine-7-carboxamide] was tested, and the IC50 (MSTO-211H cells) was under 200 nM and the IC50 [1] was under 50 nM.
Compound `NC(=O)c1cc2c(c(F)c1-c1c(Cl)c(F)cc3c1C[C@](c1ccccc1)([C@@H]1CCCN1)O3)OCc1nccnc1-2` (atropisomer, axis not shown) [Compound 6, (S)-8-((S)-5-Chloro-6-fluoro-2-phenyl-2-((S)-pyrrolidin-2-yl)-2,3-dihydrobenzofuran-4-yl)-7-fluoro-5H-chromeno[3,4-b]pyrazine-9-carboxamide] has an IC50 (MSTO-211H cells) of under 200 nM and an IC50 [1] of under 50 nM.
For `NC(=O)c1cc2c(c(F)c1-c1c(Cl)c(F)cc3c1C[C@](c1ccccc1)([C@@H]1CCCN1)O3)Oc1c(ncn(CCF)c1=O)O2` (atropisomer, axis not shown) [Compound 137, (S)-7-((S)-5-Chloro-6-fluoro-2-phenyl-2-((S)-pyrrolidin-2-yl)-2,3-dihydrobenzofuran-4-yl)-6-fluoro-3-(2-fluoroethyl)-4-oxo-3,4-dihydrobenzo[5,6][1,4]dioxo [2,3-d]pyrimidine-8-carboxamide], the IC50 (MSTO-211H cells) was under 200 nM and the IC50 [1] was under 50 nM.
Compound `Cn1cc2c(n1)COc1c-2cc(C(N)=O)c(-c2c(Cl)c(F)cc3c2C[C@@](CN[C@H]2CC[C@H](C(N)=O)CC2)(c2ccccc2)O3)c1F` (atropisomer, axis not shown) [Compound 79] has an IC50 (MSTO-211H cells) of 200 to 500 nM and an IC50 [1] of under 50 nM.
`Cn1cc2c(n1)COc1c-2cc(C(N)=O)c(-c2c(Cl)c(F)cc3c2C[C@@](CN[C@H]2CC[C@H](O)CC2)(c2ccccc2)O3)c1F` (atropisomer, axis not shown) [Compound 81] was tested, and the IC50 (MSTO-211H cells) was under 200 nM and the IC50 [1] was under 50 nM.
With `NC(=O)c1cc2c(c(F)c1-c1c(Cl)c(F)cc3c1C[C@](c1ccccc1)([C@@H]1CCCN1)O3)Oc1cn[nH]c(=O)c1O2` (atropisomer, axis not shown) [Compound 108, (S)-8-((S)-5-Chloro-6-fluoro-2-phenyl-2-((S)-pyrrolidin-2-yl)-2,3-dihydrobenzofuran-4-yl)-9-fluoro-4-oxo-3,4-dihydrobenzo[5,6][1,4]dioxo [2,3-d]pyridazine-7-carboxamide] the IC50 (MSTO-211H cells) was 500 to 5000 nM and the IC50 [1] was under 50 nM.
